Common to all, as to assay type: cell-based
Experiment [1] has as its system third stage larvae of Haemonchus contortus. The experiment in a line: Haemonchus contortus, Larvae Stage 3 (HcL3) In Vitro Assay. To be noted: Haemonchus contortus, 96 h.
In experiment [2] the test system is microfilariae of Dirofilaria immitis. The experiment can be described thus: Dirofilaria immitis, Microfilaria (DiMf) In Vitro Assay. Conditions: Dirofilaria immitis, 72 h, read-out: DiMf MED, Minimum Effective Dose, D. immitis microfilariae motility, in vitro.
In another experiment the test system is D. immitis L4 larvae. The experiment can be described thus: Dirofilaria immitis, L4 Stage (DiL4) In Vitro Assay. Conditions: for minimal effective concentration: Dirofilaria immitis, 72 h, read-out: DiL4 MED, Minimum Effective Dose, D. immitis L4 larvae motility, in vitro; for DiMf/DiL4: larval stage selectivity, ratio of DiMf MED to DiL4 MED.
[3] abbreviates: read-out: HcL3 MED, Haemonchus contortus third stage larvae in vitro, class mark appended to the Ex # in Table 3.
Setting [4] is: read-out: HcL3 MED, Minimum Effective Dose, H. contortus third stage larvae, approximately 96 hours.

Where two headings read alike, the source gives them in different places. Bounds are passed on as bounds.

With `COc1nccc(Cc2ccc(C[C@H]3OC(=O)[C@H](CC(C)C)N(C)C(=O)[C@@H](C)OC(=O)[C@H](CC(C)C)N(C)C(=O)[C@@H](Cc4ccc(Cc5ccnc(OC)c5OC)cc4)OC(=O)[C@H](CC(C)C)N(C)C(=O)[C@@H](C)OC(=O)[C@H](CC(C)C)N(C)C3=O)cc2)c1OC` [Example 3-334, (3S,6R,9S,12R,15S,18R,21S,24R)-6,18-bis(4-((2,3-dimethoxypyridin-4-yl)methyl)benzyl)-3,9,15,21-tetraisobutyl-4,10,12,16,22,24-hexamethyl-1,7,13,19-tetraoxa-4,10,16,22-tetraazacyclotetracosan-2,5,8,11,14,17,20,23-octaone], the minimal effective concentration is < 1 µM in experiment [1] (setting [3]); 0.1 µM in experiment [1] (setting [4]); ≤ 1 µM in experiment [1] (read-out: HcL3 MED, approximately 96 hours incubation, multiple-resistant field isolate); 0.003 µM in experiment [2]; 0.0003 µM in the experiment on D. immitis L4 larvae. The DiMf/DiL4 in the experiment with D. immitis L4 larvae stood at 10.
For the compound `CC(C)C[C@H]1C(=O)O[C@H](Cc2ccc(Cc3cncnc3C3CC3)cc2)C(=O)N(C)[C@@H](CC(C)C)C(=O)O[C@H](C)C(=O)N(C)[C@@H](CC(C)C)C(=O)O[C@H](Cc2ccc(Cc3cncnc3C3CC3)cc2)C(=O)N(C)[C@@H](CC(C)C)C(=O)O[C@H](C)C(=O)N1C` [Example 3-289, (3S,6R,9S,12R,15S,18R,21S,24R)-6,18-bis(4-((4-cyclopropylpyrimidin-5-yl)methyl)benzyl)-3,9,15,21-tetraisobutyl-4,10,12,16,22,24-hexamethyl-1,7,13,19-tetraoxa-4,10,16,22-tetraazacyclotetracosan-2,5,8,11,14,17,20,23-octaone], the minimal effective concentration in experiment [1] (setting [3]) was 1 to 3.3 µM; in experiment [1] (setting [4]) it was 3.3 µM; in experiment [2] it was 0.003 µM; in the experiment with D. immitis L4 larvae it was 0.0005 µM. The DiMf/DiL4 with D. immitis L4 larvae stood at 6.
The like results for `CC(C)C[C@H]1C(=O)O[C@H](Cc2ccc(Cc3ccoc3)cc2)C(=O)N(C)[C@@H](CC(C)C)C(=O)O[C@H](C)C(=O)N(C)[C@@H](CC(C)C)C(=O)O[C@H](Cc2ccc(Cc3ccoc3)cc2)C(=O)N(C)[C@@H](CC(C)C)C(=O)O[C@H](C)C(=O)N1C` [Example 3-173, (3S,6R,9S,12R,15S,18R,21S,24R)-6,18-bis(4-(furan-3-ylmethyl)benzyl)-3,9,15,21-tetraisobutyl-4,10,12,16,22,24-hexamethyl-1,7,13,19-tetraoxa-4,10,16,22-tetraazacyclotetracosan-2,5,8,11,14,17,20,23-octaone] were, in that order, 1 to 3.3 µM, 3.3 µM, 0.003 µM, < 0.0001 µM and >30.
Regarding `CC(C)C[C@H]1C(=O)O[C@H](Cc2ccc([C@H](F)c3nccs3)cc2)C(=O)N(C)[C@@H](CC(C)C)C(=O)O[C@H](C)C(=O)N(C)[C@@H](CC(C)C)C(=O)O[C@H](Cc2ccc([C@@H](F)c3nccs3)cc2)C(=O)N(C)[C@@H](CC(C)C)C(=O)O[C@H](C)C(=O)N1C` [Example 3-285, (3S,6R,9S,12R,15S,18R,21S,24R)-6-(4-((R)-fluoro(thiazol-2-yl)methyl)benzyl)-18-(4-((S)-fluoro(thiazol-2-yl)methyl)benzyl)-3,9,15,21-tetraisobutyl-4,10,12,16,22,24-hexamethyl-1,7,13,19-tetraoxa-4,10,16,22-tetraazacyclotetracosan-2,5,8,11,14,17,20,23-octaone], the minimal effective concentration in experiment [1] (setting [4]) came to 5.7 µM; in experiment [2], 0.003 µM; in the experiment on D. immitis L4 larvae, 0.0005 µM. Besides, in the experiment on D. immitis L4 larvae, the DiMf/DiL4 stood at 6.

These data come from patent US11771738B2 (Zoetis Services LLC, priority 2018, dated 2023).
